Results as given in US9382517B2, “HCV full-length infectious cell culture systems and applications thereof” (priority 2012, dated 2016).

Experiments:
[1] = tested on: TN full-length virus; assay: HCV antiviral treatment of Huh7.5 cells infected with TN full-length virus (first passage TN_LSGF/A1226G/Q1773H); assay type: cell-based, hepatitis C virus (genotype 1a); details: for inhibition of TN full-length virus: DAAs 24 hours post-infection, interferon-α2b 24 and 48 hours, HCV positive cells 72 hours post-infection
Experimental: (§1) Naïve Huh7.5 cells were infected with first passage virus stock of TN full-length recombinant TN_LSGF/A1226G/Q1773H; the ORF sequence of this virus stock is shown in FIGS. 16 and 17. A J6/JFH1 virus stock was treated in parallel. Antivirals were administered 24 hours post infection at the indicated doses; interferon-α2b was also administered 48 hours post infection. The number of HCV positive cells per well was determined 72 hours post infection. (A) Dose response curves for treatments with lead compound protease inhibitors telaprevir (VX-950), boceprevir (SCH503034), and simeprevir (TMC435), NS5A inhibitor daclatasvir (BMS-790052), and NS5B inhibitor PSI-7977, as well as interferon-α2b. Values are means of triplicate determinations with SEM. (B) Median effective concentrations (EC50) of the used inhibitors against the indicated viruses. Values for EC50 and 95% confidence interval are shown.
(§2) HCV antiviral treatment. HCV DAAs were purchased from Acme Bioscience (Palo Alto, Calif.) and dissolved in dimethyl sulfoxide. Inerferon-α2b was purchased from Schering-Plough (Kenilworth, N.J.).
Briefly, Huh7.5 cells grown in poly-D-lysine-coated 96-well plates (Nunc) were infected with HCV and treated with DAAs 24 hours post-infection. Treatment with interferon-α2b was performed at 24 and 48 hours post-infection. Single HCV Core and NS5A positive cells were determined 72 hours post-infection by immunostaining with combination of C7-50 (Enzo Life Sciences) and 9E10 antibodies. Dose response curves were fitted and EC50 values with 95% confidence interval were calculated in GraphPad Prim 4 (Graphpad).

[2] = tested on: J6/JFH1 with J6-specific NS3/NS4A protease; assay: HCV antiviral treatment of Huh7.5 cells infected with J6/JFH1 with J6-specific NS3/NS4A protease; assay type: cell-based, hepatitis C virus (genotype 2a); details: J6/JFH1 with J6-specific NS3/NS4A protease compared to J6^5′UTR-NS2/JFH1
Experimental: (§3) Naïve Huh7.5 cells were infected with indicated viruses, and antiviral treatments were carried out at 24 and 48 hours post-infection. The HCV positive cells were counted 72 hours post-infection as previously described. Fourth passage J6 full-length J6_LSGΔ33U virus (Table 3) was used for treatment. Treatment experiments with recombinants J6^5′UTR-NS2/JFH1, J6^Core-NS2,NS3 protease, NS4A/JFH1 and J6^Core-NS2,NS5A/JFH1 were included for comparison. (A) Treatment with protease inhibitors (boceprevir and TMC435) and the NS5A inhibitor daclatasvir (BMS-790052). (B) Treatment with NS5B inhibitors. (C) Median effective concentrations (EC50) of the used inhibitors against the indicated viruses. *, range of two experiments; experiments with the lowest EC50 shown in A or B. In A and B, values are means of triplicate determinations.
(§4) HCV antiviral treatment. HCV antivirals were purchased from Acme Bioscience (Palo Alto, Calif.) and dissolved in dimethyl sulfoxide. Huh7.5 cells grown in poly-D-lysine-coated 96-well plates (Nunc) were infected with HCV and treated with antivirals 24 and 48 hours post-infection as previously described. Single HCV core positive cells were determined by immunostaining with C7-50 (Enzo Life Sciences) 72 hours post-infection.

[3] = tested on: J6 full-length virus; assay: HCV antiviral treatment of Huh7.5 cells infected with J6 full-length virus (fourth passage J6_LSGΔ33U); assay type: cell-based, hepatitis C virus (genotype 2a); details: for inhibition of full-length J6 culture viruses: treatment 24 and 48 hours post-infection, HCV positive cells counted 72 hours post-infection
Experimental: as §3, §4

[4] = tested on: Huh7.5 cells; assay: Cytotoxicity assay, non-cytotoxic dose range (Example 3); assay type: cell-based, human; details: at the doses used in this study
Experimental: A cytotoxicity assay was performed for PSI-7977, as we had not used this drug previously. The non-cytotoxic dose range for telaprevir, boceprevir, simeprevir, daclatasvir, and interferon-α2b was determined.

[5] = tested on: J6/JFH1-based recombinant with TN NS5A; assay: HCV antiviral treatment, J6/JFH1-based recombinant with TN NS5A; assay type: cell-based; details: Hepatitis C virus, read-out: Median effective concentration (EC50)
[6] = tested on: J6/JFH1; assay: HCV antiviral treatment of Huh7.5 cells infected with J6/JFH1 virus stock; assay type: cell-based, hepatitis C virus (genotype 2a); details: stated for HCV of genotypes 1 and 2
Experimental: as §1, §2
Briefly, Huh7.5 cells grown in poly-D-lysine-coated 96-well plates (Nunc) were infected with HCV and treated with DAAs 24 hours post-infection. […] Single HCV Core and NS5A positive cells were determined 72 hours post-infection by immunostaining with combination of C7-50 (Enzo Life Sciences) and 9E10 antibodies. […]

[7] = J6 virus compared to J6^5′UTR-NS2/JFH1

COc1ccc2c(O[C@@H]3C[C@H]4C(=O)N[C@]5(C(=O)NS(=O)(=O)C6CC6)C[C@H]5/C=C\CCCCN(C)C(=O)[C@@H]4C3)cc(-c3nc(C(C)C)cs3)nc2c1C [TMC435, simeprevir]
inhibition of TN full-length virus [1]: dose-dependently inhibited | fold higher EC50 than that found for J6^5′UTR-NS2/JFH1 [2]: 2-3 fold | fold higher EC50 than that found for J6^5′UTR-NS2/JFH1 [3, 7]: 2-3 fold | inhibition of full-length J6 culture viruses [3]: inhibited | cytotoxic effects [4]: No cytotoxic effects

COC(=O)N[C@H](C(=O)N1CCC[C@H]1c1nc(-c2ccc(-c3ccc(-c4c[nH]c([C@@H]5CCCN5C(=O)[C@@H](NC(=O)OC)C(C)C)n4)cc3)cc2)c[nH]1)C(C)C [daclatasvir]
EC50 [5]: 0.042 nM | EC50 ([1]; Hepatitis C virus, TN full-length virus, 72 hours post-infection, read-out: Median effective concentration (EC50)): 0.032 nM | cytotoxic effects [4]: No cytotoxic effects

interferon-α2b
inhibition of TN full-length virus [1]: dose-dependently inhibited | cytotoxic effects [4]: No cytotoxic effects

CCC[C@H](NC(=O)[C@@H]1[C@H]2CCC[C@H]2CN1C(=O)[C@@H](NC(=O)[C@@H](NC(=O)c1cnccn1)C1CCCCC1)C(C)(C)C)C(=O)C(=O)NC1CC1 [telaprevir]
cytotoxic effects [4]: No cytotoxic effects

CC(C)(C)NC(=O)N[C@H](C(=O)N1C[C@H]2[C@@H]([C@H]1C(=O)NC(CC1CCC1)C(=O)C(N)=O)C2(C)C)C(C)(C)C (stereo partly drawn) [boceprevir]
cytotoxic effects [4]: No cytotoxic effects

C[C@@]1(F)[C@H](O)[C@@H](CO)O[C@H]1n1ccc(N)nc1=O [PSI-6130]
fold lower EC50 compared to J6^5′UTR-NS2/JFH1 [3, 7]: around 4 fold | inhibition of full-length J6 culture viruses [3]: inhibited

CC(C)[C@H](N)C(=O)O[C@@H]1[C@@H](CO)O[C@@H](n2ccc(N)nc2=O)[C@]1(C)O [NM283]
fold lower EC50 compared to J6^5′UTR-NS2/JFH1 [3, 7]: ~6 fold | inhibition of full-length J6 culture viruses [3]: inhibited

CC(C)OC(=O)[C@H](C)N[P@](=O)(OC[C@H]1O[C@@H](n2ccc(=O)[nH]c2=O)[C@](C)(F)[C@@H]1O)Oc1ccccc1 [PSI-7977]
inhibition of HCV of genotype 2 (J6/JFH1) [6]: efficiently inhibit | inhibition of TN full-length virus [1]: dose-dependently inhibited | cytotoxic effects [4]: No cytotoxic effects

CNC(=O)c1c(-c2ccc(F)cc2)oc2cc(N(CCO)S(C)(=O)=O)c(C3CC3)cc12 [HCV-796]
fold lower EC50 compared to J6^5′UTR-NS2/JFH1 [3, 7]: ~2 fold | inhibition of full-length J6 culture viruses [3]: inhibited
